Series [1] in a line: Thermodynamic aqueous solubility. Type of series: physicochemical. Conditions: water, equilibrated at 25° C. for 24 hours, HPLC. How it is done:
Aqueous solubility was determined by suspending sufficient compound in water to give a maximum final concentration of ≥20 mg·ml^−1 of the parent free-form of the compound. The suspension was equilibrated at 25° C. for 24 hours then the pH was measured. The suspension was then filtered through a glass fibre C filter into a 96 well plate unless stated otherwise. The filtrate was then diluted by a factor of 101. Quantitation was by HPLC with reference to a standard solution of approximately 0.1 mg·ml^−1 in DMSO. Different volumes of the standard, diluted and undiluted sample solutions were injected. The solubility was calculated using the peak areas determined by integration of the peak found at the same retention time as the principal peak in the standard injection.
Analysis was performed on an Agilent HP1100 series system equipped with a diode array detector and using ChemStation software vB.02.01-SR1.

Series [2] in a line: Storage stability at 40° C. and 75% RH (XRPD). Type of series: physicochemical. The settings on record: a week.
Series [3] is described as follows: Forcing drying conditions (60° C. at <20 mm Hg). Type of series: physicochemical. Conditions: 60° C. at <20 mm Hg for 8 days.
Series [4] can be described thus: Stability under ambient conditions. In kind it is physicochemical. The settings on record: within a month.
The nature of series [5]: Gravimetric vapour sorption (GVS). In kind it is physicochemical. Conditions: for Solid form stability under the GVS conditions (XRPD after GVS): 25° C., 0-90% RH. How it is done: Sorption isotherms were obtained using a SMS DVS Intrinsic moisture sorption analyser, controlled by SMS Analysis Suite software. The sample temperature was maintained at 25° C. by the instrument controls. The humidity was controlled by mixing streams of dry and wet nitrogen, with a total flow rate of 200 ml min^−1. The relative humidity was measured by a calibrated Rotronic probe (dynamic range of 1.0-100% RH), located near the sample. The weight change, (mass relaxation) of the sample as a function of % RH was constantly monitored by the microbalance (accuracy ±0.005 mg). Typically 5-20 mg of sample was placed in a tared mesh stainless steel basket under ambient conditions. The sample was loaded and unloaded at 40% RH and 25° C. (typical room conditions). A moisture sorption isotherm was performed as outlined below (2 scans giving 1 complete cycle). The standard isotherm was performed at 25° C. at 10% RH intervals over a 0.5-90% RH range. [table] The sample was recovered after completion of the isotherm and re-analyzed by XRPD.

Series [6] can be described thus: Storage stability at 25° C. and 92% RH (XRPD). Conditions: for Solid form stability on storage: 92% RH/25° C., on glass slide, after a week. Type of series: physicochemical. How it is done:
A sample of Form E was laid on a glass slide then placed in a box maintained at 92% RH/25° C.

The next series has as its target T1, T877A AR mutant (Homo sapiens, UniProt P10275, T878A).
T1 sequence (P10275 1-920 T878A): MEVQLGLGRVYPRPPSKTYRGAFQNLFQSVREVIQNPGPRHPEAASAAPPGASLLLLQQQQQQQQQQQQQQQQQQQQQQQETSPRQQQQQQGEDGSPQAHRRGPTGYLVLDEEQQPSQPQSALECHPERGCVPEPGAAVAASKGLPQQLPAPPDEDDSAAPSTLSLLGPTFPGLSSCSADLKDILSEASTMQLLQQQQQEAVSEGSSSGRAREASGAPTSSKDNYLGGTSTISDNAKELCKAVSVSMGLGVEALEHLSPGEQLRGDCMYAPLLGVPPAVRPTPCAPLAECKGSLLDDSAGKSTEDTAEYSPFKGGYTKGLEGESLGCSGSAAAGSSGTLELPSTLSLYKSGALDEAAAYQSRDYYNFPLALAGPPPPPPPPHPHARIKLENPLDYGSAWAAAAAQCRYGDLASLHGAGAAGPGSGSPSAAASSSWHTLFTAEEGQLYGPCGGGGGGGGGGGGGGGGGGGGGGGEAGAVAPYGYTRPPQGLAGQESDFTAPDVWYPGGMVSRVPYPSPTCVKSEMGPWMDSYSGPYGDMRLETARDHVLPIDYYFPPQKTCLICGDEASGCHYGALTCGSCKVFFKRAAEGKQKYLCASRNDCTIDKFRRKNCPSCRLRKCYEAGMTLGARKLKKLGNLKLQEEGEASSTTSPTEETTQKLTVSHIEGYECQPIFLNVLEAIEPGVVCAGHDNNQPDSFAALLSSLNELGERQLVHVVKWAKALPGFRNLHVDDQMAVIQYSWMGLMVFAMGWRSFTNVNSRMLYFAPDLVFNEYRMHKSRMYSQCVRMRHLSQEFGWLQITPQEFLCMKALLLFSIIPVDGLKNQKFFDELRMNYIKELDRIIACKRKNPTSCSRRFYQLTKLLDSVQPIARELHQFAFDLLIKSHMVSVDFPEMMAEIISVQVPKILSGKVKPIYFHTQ
The settings on record: cited from earlier work.

Results on eleven compounds are retold here after patent US12018008B2, “Crystalline forms of an androgen receptor modulator” (Aragon Pharmaceuticals, Inc., priority 2012, dated 2024).

Each structure is given as a SMILES string.

Regarding `CNC(=O)c1ccc(N2C(=S)N(c3cnc(C#N)c(C(F)(F)F)c3)C(=O)C23CCC3)cc1F` [Form A, 4-[7-(6-cyano-5-trifluoromethylpyridin-3-yl)-8-oxo-6-thioxo-5,7-diazaspiro[3.4]oct-5-yl]-2-fluoro-N-methylbenzamide], in series [1], the “Aqueous Solubility (mg/mL)” value is on record as “about 0.01 mg/mL”. In addition, the “Solid form stability on storage” value in series [2] is “stable”. For the same compound, the “Behaviour under forcing conditions” value in series [3] is given as “lost ethanol, the XRPD pattern of the material stayed the same”.

As to `CNC(=O)c1ccc(N2C(=S)N(c3cnc(C#N)c(C(F)(F)F)c3)C(=O)C23CCC3)cc1F` [Form F, 4-[7-(6-cyano-5-trifluoromethylpyridin-3-yl)-8-oxo-6-thioxo-5,7-diazaspiro[3.4]oct-5-yl]-2-fluoro-N-methylbenzamide], the “Solid form stability on storage” value in series [2] is recorded as “transformed to Form A”. For the same compound, in series [4], the “Solid form stability under ambient conditions” value is listed as “transformed to Form A”.

As for `CNC(=O)c1ccc(N2C(=S)N(c3cnc(C#N)c(C(F)(F)F)c3)C(=O)C23CCC3)cc1F` [Form E, 4-[7-(6-cyano-5-trifluoromethylpyridin-3-yl)-8-oxo-6-thioxo-5,7-diazaspiro[3.4]oct-5-yl]-2-fluoro-N-methylbenzamide], in series [5], the “Solid form stability under the GVS conditions (XRPD after GVS)” value was “transformed to Form A”. In addition, the “Solid form stability on storage” value in series [6] was “transformed to Form A and a small amount of Form B”; in series [2], “transformed to Form A”.

As to `CNC(=O)c1ccc(N2C(=S)N(c3cnc(C#N)c(C(F)(F)F)c3)C(=O)C23CCC3)cc1F` [Form G, 4-[7-(6-cyano-5-trifluoromethylpyridin-3-yl)-8-oxo-6-thioxo-5,7-diazaspiro[3.4]oct-5-yl]-2-fluoro-N-methylbenzamide], in series [2], the “Solid form stability on storage” value was “stable”.

Turning to `CC(C)(O)C(=O)Nc1ccc([N+](=O)[O-])c(C(F)(F)F)c1` [hydroxyflutamide], the “Activity in T877A AR mutant” value at T877A AR mutant is given as “act as AR agonists”.

Regarding `CNC(=O)c1ccc(N2C(=S)N(c3cnc(C#N)c(C(F)(F)F)c3)C(=O)C23CCC3)cc1F` [Form H, 4-[7-(6-cyano-5-trifluoromethylpyridin-3-yl)-8-oxo-6-thioxo-5,7-diazaspiro[3.4]oct-5-yl]-2-fluoro-N-methylbenzamide], the “Solid form stability on storage” value in series [2] is “stable”.

As for `CNC(=O)c1ccc(N2C(=S)N(c3cnc(C#N)c(C(F)(F)F)c3)C(=O)C23CCC3)cc1F` [Form C, 4-[7-(6-cyano-5-trifluoromethylpyridin-3-yl)-8-oxo-6-thioxo-5,7-diazaspiro[3.4]oct-5-yl]-2-fluoro-N-methylbenzamide], the “Solid form stability on storage” value in series [2] is reported as “stable”.

For the compound `CNC(=O)c1ccc(N2C(=S)N(c3cnc(C#N)c(C(F)(F)F)c3)C(=O)C23CCC3)cc1F` [Form D, 4-[7-(6-cyano-5-trifluoromethylpyridin-3-yl)-8-oxo-6-thioxo-5,7-diazaspiro[3.4]oct-5-yl]-2-fluoro-N-methylbenzamide], the “Solid form stability on storage” value in series [2] was “stable”.

On to `CNC(=O)c1ccc(N2C(=S)N(c3cnc(C#N)c(C(F)(F)F)c3)C(=O)C23CCC3)cc1F` [Form I, 4-[7-(6-cyano-5-trifluoromethylpyridin-3-yl)-8-oxo-6-thioxo-5,7-diazaspiro[3.4]oct-5-yl]-2-fluoro-N-methylbenzamide], for which the “Solid form stability on storage” value in series [6] is on record as “transformed to Form B”.

With `CNC(=O)c1ccc(N2C(=S)N(c3cnc(C#N)c(C(F)(F)F)c3)C(=O)C23CCC3)cc1F` [Form J, 4-[7-(6-cyano-5-trifluoromethylpyridin-3-yl)-8-oxo-6-thioxo-5,7-diazaspiro[3.4]oct-5-yl]-2-fluoro-N-methylbenzamide], the “Solid form stability on storage” value in series [6] is “transformed to Form B”.

For the compound `CNC(=O)c1ccc(N2C(=S)N(c3cnc(C#N)c(C(F)(F)F)c3)C(=O)C23CCC3)cc1F` [Form B, 4-[7-(6-cyano-5-trifluoromethylpyridin-3-yl)-8-oxo-6-thioxo-5,7-diazaspiro[3.4]oct-5-yl]-2-fluoro-N-methylbenzamide], the “Aqueous Solubility (mg/mL)” value in series [1] is “about 0.004 mg/mL”. Also, the “Solid form stability under the GVS conditions (XRPD after GVS)” value in series [5] was “stable”. Further, the Hygroscopicity entry in series [5] (GVS at 25° C.) is reported as “not hygroscopic”. In series [5] (GVS isotherm at 25° C., at 90% RH), the Uptake of water entry is given as “less than 0.2%”. For the same compound, the “Solid form stability on storage (XRPD before and after)” value in series [6] (25° C. and 92% RH for 12 days) is given as “stable”. Further, the “Solid form stability on storage” value in series [2] is “stable”.
